“And” between values parts separate entries of the source, which are not always exact repeats. Equal values may be shown once. Marks after values point to notes of the source that are not given here.
Assays:
[1] = system: COLO-205; test: Cell cycle analysis, DNA flow cytometry (PI); type: cell-based, human
Experimental: COLO-205 Cells were placed in a 6-well plate at 1 × 10^5 concentration of cells/well then incubated for 24 h. COLO-205 Cells were treated with compound 4b (2.34 μM) for 24 h. Cells were then collected and fixed for 12 h using ice cold 70% ethanol at 4 °C. Ethanol was then removed and cells were washed with cold phosphate buffer saline (PBS, 0.5 mL) and incubated for 30 min at 37 °C. The cells were stained for 30 min with propidium iodide in the dark. A flow cytometer was used to detect DNA content.

[2] = system: Pgp; test: Pgp ELISA assay in MCF-7 cells; type: in vitro ADME, human
Experimental: PgP concentration was measured using ELISA kit Cat No: MBS722065) for human PgP assay. The Pgp ELISA kit employs a competitive enzyme immunoassay technique using a polyclonal anti-Pgp antibody and a PgpHRP conjugate. The test sample and buffer were incubated together with the PgpHRP conjugate on a precoated plate for one hour. After the incubation period, the wells were decanted and washed five times. The wells were then incubated with a substrate for the HRP enzyme. The enzyme-substrate reaction product formed a blue complex. Finally, a stop solution was added to stop the reaction, which then turned the solution yellow. Color intensity was measured spectrophotometrically at 450 nm in a microplate reader. The intensity of the color was inversely proportional to the Pgp concentration, since the Pgp of the samples and the PgpHRP conjugate competed for the binding site of the anti-Pgp antibody. Because the number of sites is limited, there were fewer sites left to bind to the PgpHRP conjugate as the sample Pgp occupies more sites. A standard curve was drawn that relates the intensity of the color to the concentration of the standards. The Pgp concentration in each sample was interpolated from this standard curve.

[3] = system: COLO-205; test: Annexin V-FITC/PI apoptosis assay; type: cell-based, human
Experimental: COLO-205 Cells were placed in a 6-well plate at 1 × 10^5 concentration of cells/well then incubated for 24 h. COLO-205 Cells were treated with compound 4b (2.34 μM) for 24 h. The cells were then harvested, washed with PBS and stained with Annexin V-FITC and PI in binding buffer ([…] at pH 7.4) for 15 min at room temperature in the dark then analyzed by the flow cytometer.

[4] = COLO-205, 4b 2.34 μM, 24 h, annexin V-FITC

SMILES: COc1cc(OC)c(/C=C2/C(=O)Nc3cc(Cl)ccc32)c(OC)c1 [Compound 4b, (E)-6-chloro-3-(2,4,6-trimethoxybenzylidene)indolin-2-one]
- DNA content %G0-G1 ([1]; COLO-205, 4b 2.34 μM, 24 h): 47.15%
- DNA content %G2/M ([1]; COLO-205, 4b 2.34 μM, 24 h): 2.94 * %
- DNA content %Pre-G1 ([1]; COLO-205, 4b 2.34 μM, 24 h): 41.28% and 41.28 * %
- DNA content %S ([1]; COLO-205, 4b 2.34 μM, 24 h): 49.91%
- increase in cells at pre-G1 phase, fold ([1]; COLO-205, vs untreated control): 16.99 fold
- Pgp occupied by compound [2]: around 35%
- Apoptosis Early [3, 4]: 2.61%
- Apoptosis Late [3, 4]: 21.31%
- Apoptosis Total [3, 4]: 41.28%
- Necrosis ([3]; COLO-205, 4b 2.34 μM, 24 h, annexin V-FITC/PI): 17.36%
- overall effect (cytotoxic vs cytostatic) ([3]; COLO-205, annexin V/PI): cytotoxic, rather than cytostatic
- early and late apoptosis, times compared to the control ([3]; COLO-205, vs DMSO control): 27.81 times
- necrosis, times compared to the control ([3]; COLO-205, vs DMSO control): 11.05 times

From article PMC8620390, “New Multi-Targeted Antiproliferative Agents: Design and Synthesis of IC261-Based Oxindoles as Potential Tubulin, CK1 and EGFR Inhibitors” (Pharmaceuticals, 2021)
